From the supplement of paper PMC10307832

How the values were obtained:
Assay in all cases: relative viability (nuclei count vs DMSO), 5 days (fraction); higher = more cells survive
[1] = system: NCI-H1944
In short: (§1)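 Each reported value is a median over duplicate plates. It expresses relative viability: treated-well nuclei count divided by vehicle-well nuclei count. Lung cancer cell lines in 1536-well plates were dosed by pin tool a day after seeding, alone with one drug or with a fixed anchor-drug dose plus five library-drug doses (not always all listed) in √10 steps, and nuclei were counted after 5 days.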

[2] = system: SK-LU-1
In short: as §1

[3] = system: NCI-H838
In short: as §1

[4] = system: NCI-H1993
In short: as §1

[5] = system: HCC-366
In short: as §1

[6] = system: HCC-78
In short: as §1

[7] = system: NCI-H1793
In short: as §1

[8] = system: NCI-H2126
In short: as §1

[9] = system: ChaGo-K-1
In short: as §1

[10] = system: NCI-H2023
In short: as §1

[11] = system: NCI-H358
In short: as §1

Nc1ccn([C@@H]2O[C@H](CO)[C@@H](O)[C@@H]2O)c(=O)n1 [Cytarabine] + Nc1ncn([C@H]2C[C@H](O)[C@@H](CO)O2)c(=O)n1 [Decitabine] (partner 2 µM)
relative viability ([1]; first compound 0.005 µM): 0.335
relative viability ([1]; first compound 0.01581 µM): 0.347
relative viability ([1]; first compound 0.05 µM): 0.319
relative viability ([1]; first compound 0.1581 µM): 0.194
relative viability ([1]; first compound 0.5 µM): 0.151
relative viability ([2]; first compound 0.005 µM): 0.526
relative viability ([2]; first compound 0.01581 µM): 0.565
relative viability ([2]; first compound 0.05 µM): 0.524
relative viability ([2]; first compound 0.1581 µM): 0.462
relative viability ([2]; first compound 0.5 µM): 0.372
relative viability ([3]; first compound 0.005 µM): 0.476
relative viability ([3]; first compound 0.01581 µM): 0.407
relative viability ([3]; first compound 0.05 µM): 0.427
relative viability ([3]; first compound 0.1581 µM): 0.311
relative viability ([3]; first compound 0.5 µM): 0.274
relative viability ([4]; first compound 0.005 µM): 0.584
relative viability ([4]; first compound 0.01581 µM): 0.441
relative viability ([4]; first compound 0.05 µM): 0.516
relative viability ([4]; first compound 0.1581 µM): 0.471
relative viability ([4]; first compound 0.5 µM): 0.206
relative viability ([5]; first compound 0.005 µM): 0.402
relative viability ([5]; first compound 0.01581 µM): 0.292
relative viability ([5]; first compound 0.05 µM): 0.231
relative viability ([5]; first compound 0.1581 µM): 0.0925
relative viability ([5]; first compound 0.5 µM): 0.0894
relative viability ([6]; first compound 0.005 µM): 0.715
relative viability ([6]; first compound 0.01581 µM): 0.668
relative viability ([6]; first compound 0.05 µM): 0.587
relative viability ([6]; first compound 0.1581 µM): 0.492
relative viability ([6]; first compound 0.5 µM): 0.44
relative viability ([7]; first compound 0.005 µM): 0.585
relative viability ([7]; first compound 0.01581 µM): 0.35
relative viability ([7]; first compound 0.05 µM): 0.336
relative viability ([7]; first compound 0.1581 µM): 0.212
relative viability ([7]; first compound 0.5 µM): 0.237
relative viability ([8]; first compound 0.005 µM): 0.597
relative viability ([8]; first compound 0.01581 µM): 0.518
relative viability ([8]; first compound 0.05 µM): 0.514
relative viability ([8]; first compound 0.1581 µM): 0.457
relative viability ([8]; first compound 0.5 µM): 0.429
relative viability ([9]; first compound 0.005 µM): 0.475
relative viability ([9]; first compound 0.01581 µM): 0.413
relative viability ([9]; first compound 0.05 µM): 0.339
relative viability ([9]; first compound 0.1581 µM): 0.252
relative viability ([9]; first compound 0.5 µM): 0.225
relative viability ([10]; first compound 0.005 µM): 0.169
relative viability ([10]; first compound 0.01581 µM): 0.116
relative viability ([10]; first compound 0.05 µM): 0.114
relative viability ([10]; first compound 0.1581 µM): 0.0751
relative viability ([10]; first compound 0.5 µM): 0.0656
relative viability ([11]; first compound 0.005 µM): 0.229
relative viability ([11]; first compound 0.01581 µM): 0.205
